According to the NIST ThermoML archive (doi:10.1016/j.fluid.2018.04.012):

Assay: xn = mol fraction of the nth substance listed
Settings: Liquid, Vibrating tube method

CC(C)OC(C)C [diisopropyl ether] + CC(C)O
mass density [kg/m3]
Settings | x2 = 0.1503 | x2 = 0.2979 | x2 = 0.4228 | x2 = 0.5 | x2 = 0.6737 | x2 = 0.8483
333.15 K, 130000 kPa | – | – | – | 807.2 | 815.2 | 824.7
333.15 K, 140000 kPa | 799.3 | 804.1 | 808.6 | 811.9 | 819.7 | 829.1
353.19 K, 1000 kPa | 665.8 | 673.2 | 680.7 | 685.4 | 698.3 | 713.7
353.19 K, 5000 kPa | 673.7 | 680.7 | 687.7 | 692.4 | 704.7 | 719.5
353.19 K, 10000 kPa | 682.3 | 689.1 | 695.5 | 700.2 | 711.9 | 726.1
353.19 K, 15000 kPa | 690 | 696.5 | 702.7 | 707.2 | 718.5 | 732.2
353.19 K, 20000 kPa | 696.9 | 703.2 | 709.2 | 713.6 | 724.5 | 737.7
353.19 K, 25000 kPa | 703.3 | 709.3 | 715.3 | 719.5 | 730.1 | 742.9
353.19 K, 30000 kPa | 709.2 | 715.1 | 720.9 | 725 | 735.3 | 747.8
353.19 K, 35000 kPa | 714.7 | 720.5 | 726.2 | 730.1 | 740.2 | 752.4
353.19 K, 40000 kPa | 719.8 | 725.4 | 731.2 | 734.9 | 744.8 | 756.7
353.19 K, 45000 kPa | 724.6 | 730.2 | 735.9 | 739.5 | 749.2 | 760.8
353.19 K, 50000 kPa | 729.4 | 734.8 | 740.3 | 743.9 | 753.5 | 764.9
353.19 K, 55000 kPa | 733.7 | 739 | 744.5 | 748 | 757.3 | 768.6
353.19 K, 60000 kPa | 737.8 | 743.1 | 748.6 | 752 | 761.1 | 772.2
353.19 K, 65000 kPa | 741.9 | 747.1 | 752.5 | 755.8 | 764.9 | 775.8
353.19 K, 70000 kPa | 745.7 | 750.9 | 756.2 | 759.5 | 768.4 | 779.2
353.19 K, 80000 kPa | 752.9 | 758 | 763.2 | 766.3 | 775 | 785.5
353.19 K, 90000 kPa | 759.7 | 764.7 | 769.7 | 772.8 | 781.4 | 791.6
353.19 K, 100000 kPa | 766 | 770.8 | 775.8 | 778.9 | 787.2 | 797.2
353.19 K, 110000 kPa | 772 | 776.8 | 781.5 | 784.7 | 792.9 | 802.7
353.19 K, 120000 kPa | 777.6 | 782.3 | 786.9 | 790.1 | 798.1 | 807.7
353.19 K, 130000 kPa | 782.9 | 787.6 | 792.1 | 795.2 | 803.1 | 812.6
353.19 K, 140000 kPa | 788.1 | 792.7 | 797 | 800.2 | 808 | 817.4
373.24 K, 1000 kPa | 641 | 648.3 | 655.6 | 660.4 | 673.6 | 689.6
373.24 K, 5000 kPa | 650.7 | 657.5 | 664.2 | 669 | 681.4 | 696.7
373.24 K, 10000 kPa | 661 | 667.6 | 673.7 | 678.3 | 690.1 | 704.5
373.24 K, 15000 kPa | 670 | 676.2 | 682.1 | 686.6 | 697.9 | 711.6
373.24 K, 20000 kPa | 678.1 | 684.1 | 689.7 | 694 | 704.8 | 718
373.24 K, 25000 kPa | 685.3 | 691.1 | 696.6 | 700.8 | 711.2 | 724
373.24 K, 30000 kPa | 692 | 697.6 | 703 | 707 | 717.1 | 729.5
373.24 K, 35000 kPa | 698.1 | 703.6 | 708.9 | 712.8 | 722.6 | 734.7
373.24 K, 40000 kPa | 703.9 | 709.2 | 714.5 | 718.1 | 727.8 | 739.6
373.24 K, 45000 kPa | 709.2 | 714.5 | 719.6 | 723.3 | 732.7 | 744.3
373.24 K, 50000 kPa | 714.2 | 719.3 | 724.5 | 728 | 737.2 | 748.6
373.24 K, 55000 kPa | 719.1 | 724.1 | 729.2 | 732.6 | 741.7 | 752.7
373.24 K, 60000 kPa | 723.5 | 728.5 | 733.6 | 736.9 | 745.8 | 756.7
373.24 K, 65000 kPa | 727.8 | 732.8 | 737.8 | 741.1 | 749.8 | 760.5
373.24 K, 70000 kPa | 732 | 736.8 | 741.8 | 745 | 753.6 | 764.2
373.24 K, 80000 kPa | 739.7 | 744.5 | 749.3 | 752.6 | 760.9 | 771.2
373.24 K, 90000 kPa | 747 | 751.7 | 756.3 | 759.4 | 767.7 | 777.7
373.24 K, 100000 kPa | 753.7 | 758.3 | 762.8 | 765.9 | 774 | 783.8
373.24 K, 110000 kPa | 760 | 764.5 | 768.9 | 772 | 779.9 | 789.5
373.24 K, 120000 kPa | 765.9 | 770.4 | 774.7 | 777.8 | 785.5 | 795
373.24 K, 130000 kPa | 771.6 | 776 | 780.2 | 783.3 | 790.9 | 800.2
373.24 K, 140000 kPa | 776.9 | 781.3 | 785.3 | 788.5 | 796 | 805.1
393.28 K, 1000 kPa | 614.1 | 620.6 | 627.9 | 632.9 | 645.9 | 662.5
393.28 K, 5000 kPa | 626.4 | 632.4 | 638.9 | 643.7 | 655.9 | 671.3
393.28 K, 10000 kPa | 639 | 644.7 | 650.5 | 655.2 | 666.5 | 680.9
393.28 K, 15000 kPa | 649.7 | 655.1 | 660.6 | 665.1 | 675.7 | 689.4
393.28 K, 20000 kPa | 658.9 | 664.1 | 669.5 | 673.7 | 683.9 | 696.9
393.28 K, 25000 kPa | 667.1 | 672.2 | 677.4 | 681.4 | 691.2 | 703.8
393.28 K, 30000 kPa | 674.7 | 679.5 | 684.6 | 688.5 | 698 | 710.1
393.28 K, 35000 kPa | 681.5 | 686.3 | 691.3 | 695.1 | 704.2 | 716
393.28 K, 40000 kPa | 687.8 | 692.5 | 697.4 | 701 | 710.1 | 721.5
393.28 K, 45000 kPa | 693.6 | 698.2 | 703.2 | 706.6 | 715.4 | 726.6
393.28 K, 50000 kPa | 699.1 | 703.7 | 708.6 | 711.8 | 720.5 | 731.5
393.28 K, 55000 kPa | 704.5 | 708.9 | 713.6 | 716.9 | 725.4 | 736.2
393.28 K, 60000 kPa | 709.2 | 713.7 | 718.4 | 721.6 | 729.9 | 740.5
393.28 K, 65000 kPa | 713.9 | 718.3 | 723 | 726 | 734.3 | 744.7
393.28 K, 70000 kPa | 718.4 | 722.8 | 727.3 | 730.4 | 738.5 | 748.8
393.28 K, 80000 kPa | 726.7 | 731 | 735.5 | 738.5 | 746.4 | 756.3
393.28 K, 90000 kPa | 734.4 | 738.6 | 742.9 | 746.1 | 753.7 | 763.4
393.28 K, 100000 kPa | 741.5 | 745.6 | 749.9 | 752.9 | 760.4 | 769.9
393.28 K, 110000 kPa | 748.3 | 752.4 | 756.4 | 759.5 | 766.8 | 776.1
393.28 K, 120000 kPa | 754.5 | 758.5 | 762.5 | 765.5 | 772.8 | 781.8
393.28 K, 130000 kPa | 760.4 | 764.4 | 768.3 | 771.3 | 778.4 | 787.4
393.28 K, 140000 kPa | 766.1 | 770 | 773.8 | 776.8 | 783.9 | 792.7
